Reference: patent US6355799B1, “Substituted benzene compounds, process for their preparation, and herbicidal and defoliant compositions containing them” (ISK Americas Incorporated, priority 1997, dated 2002)

Assays:
Format in all cases: in vivo
[1] = test system: redroot pigweed (Amaranthus retroflexus, AMARE); assay: Pre-emerge test, greenhouse herbicide activity screening; settings: pre-emerge, rated 14 days after application, 0 = no damage, 100 = complete death
How it was run: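 Compounds in acetone were track-sprayed at 15-1000 g ai/ha (187 l/ha) on sandy loam pots: pre-emerge one day after seeding, post-emerge at 2-3 leaf stage with 0.25% v/v non-ionic surfactant. Phytotoxicity was rated 14 days later on a 0 (no damage) to 100 (complete death) scale.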

[2] = test system: barnyardgrass (Echinochloa crus-galli, ECHCG); assay: as above; settings: pre-emerge, rated 14 days after application, 0 = no damage, 100 = complete death
How it was run: (§1)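 Visual ratings on a 0-100 scale (0 no damage, 100 all plants dead) were taken at 14 days after treatment. Rates of 15-1000 g ai/ha in acetone, 187 l/ha, were sprayed onto soil one day after planting (pre-emerge) or onto 2-3 leaf plants with 0.25% v/v surfactant (post-emerge).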

[3] = test system: common ragweed (Ambrosia artemisizfolia L., AMBEL); assay: as above; settings: pre-emerge, rated 14 days after application, 0 = no damage, 100 = complete death
How it was run: as §1

[4] = test system: green foxtail (Setaria viridis, SETVI); assay: as above; settings: pre-emerge, rated 14 days after application, 0 = no damage, 100 = complete death
How it was run: as §1

[5] = test system: ivyleaf morningglory (Ipomoea hederacea, IPOHE); assay: as above; settings: pre-emerge, rated 14 days after application, 0 = no damage, 100 = complete death
How it was run: as §1

[6] = test system: johnsongrass (Sorghum halepense, SORHA); assay: as above; settings: pre-emerge, rated 14 days after application, 0 = no damage, 100 = complete death
How it was run: as §1

[7] = test system: lambsquarters (Chenopodium album, CHEAL); assay: as above; settings: pre-emerge, rated 14 days after application, 0 = no damage, 100 = complete death
How it was run: as §1

[8] = test system: large crabgrass (Digitaria sanguinalis, DIGSA); assay: as above; settings: pre-emerge, rated 14 days after application, 0 = no damage, 100 = complete death
How it was run: as §1

[9] = test system: sicklepod (Cassia obtusifolia, CASOB); assay: as above; settings: pre-emerge, rated 14 days after application, 0 = no damage, 100 = complete death
How it was run: as §1

[10] = test system: velvetleaf (Abutilon theophrasti, ABUTH); assay: as above; settings: pre-emerge, rated 14 days after application, 0 = no damage, 100 = complete death
How it was run: as §1

[11] = test system: field corn (Zea mays L., var. Dekalb 535, CORN); assay: Pre-emerge test, crop safety; settings: pre-emerge, rated 14 days after application, 0 = no damage, 100 = complete death
How it was run: as §1

[12] = test system: upland rice (Oryza sp., var. Tebonnet, RICE); assay: Pre-emerge test, crop safety; settings: pre-emerge, rated 14 days after application, 0 = no damage, 100 = complete death
How it was run: as §1

[13] = test system: barnyardgrass (Echinochloa crus-galli, ECHCG); assay: Post-emerge test, greenhouse herbicide activity screening; settings: phytotoxicity rating 0-100 (0 no damage, 100 complete death), 14 days after application
How it was run: (§2)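 Herbicidal damage is scored 0 (none) to 100 (complete plant death) two weeks after a simulated field spray. Rates span 15–1000 g ai/ha, delivered in acetone at 187 l/ha. For post-emergence treatments, plants have 2–3 leaves and the spray carries 0.25% v/v non-ionic surfactant.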

[14] = test system: common ragweed (Ambrosia artemisizfolia L., AMBEL); assay: as above; settings: phytotoxicity rating 0-100 (0 no damage, 100 complete death), 14 days after application
How it was run: as §2

[15] = test system: ivyleaf morningglory (Ipomoea hederacea, IPOHE); assay: as above; settings: phytotoxicity rating 0-100 (0 no damage, 100 complete death), 14 days after application
How it was run: as §2

[16] = test system: johnsongrass (Sorghum halepense, SORHA); assay: as above; settings: phytotoxicity rating 0-100 (0 no damage, 100 complete death), 14 days after application
How it was run: as §2

[17] = test system: lambsquarters (Chenopodium album, CHEAL); assay: as above; settings: phytotoxicity rating 0-100 (0 no damage, 100 complete death), 14 days after application
How it was run: as §2

[18] = test system: large crabgrass (Digitaria sanguinalis, DIGSA); assay: as above; settings: phytotoxicity rating 0-100 (0 no damage, 100 complete death), 14 days after application
How it was run: as §2

[19] = test system: redroot pigweed (Amaranthus retroflexus, AMARE); assay: as above; settings: phytotoxicity rating 0-100 (0 no damage, 100 complete death), 14 days after application
How it was run: as §2

[20] = test system: sicklepod (Cassia obtusifolia, CASOB); assay: as above; settings: phytotoxicity rating 0-100 (0 no damage, 100 complete death), 14 days after application
How it was run: as §2

[21] = test system: velvetleaf (Abutilon theophrasti, ABUTH); assay: as above; settings: phytotoxicity rating 0-100 (0 no damage, 100 complete death), 14 days after application
How it was run: as §2

[22] = test system: field corn (Zea mays L., var. Dekalb 535, CORN); assay: Post-emerge test, crop safety; settings: phytotoxicity rating 0-100 (0 no damage, 100 complete death), 14 days after application
How it was run: as §1

[23] = test system: upland rice (Oryza sp., var. Tebonnet, RICE); assay: Post-emerge test, crop safety; settings: phytotoxicity rating 0-100 (0 no damage, 100 complete death), 14 days after application
How it was run: as §1

## COc1c(Cl)cc(F)c(-n2c(=O)cc(C(F)(F)F)n(C)c2=O)c1NC(=O)c1cccc(C)c1 [2-23]
[1]; 63 g ai/ha
  Pre-emerge Herbicidal Activity AMARE (phytotoxicity rating, scale 0-100): 100
[1]; 250 g ai/ha
  Pre-emerge Herbicidal Activity AMARE (phytotoxicity rating, scale 0-100): 100
[2]; 63 g ai/ha
  Pre-emerge Herbicidal Activity ECHCG (phytotoxicity rating, scale 0-100): 80
[2]; 250 g ai/ha
  Pre-emerge Herbicidal Activity ECHCG (phytotoxicity rating, scale 0-100): 100
[3]; 63 g ai/ha
  Pre-emerge Herbicidal Activity AMBEL (phytotoxicity rating, scale 0-100): 100
[3]; 250 g ai/ha
  Pre-emerge Herbicidal Activity AMBEL (phytotoxicity rating, scale 0-100): 100
[4]; 63 g ai/ha
  Pre-emerge Herbicidal Activity SETVI (phytotoxicity rating, scale 0-100): 100
[4]; 250 g ai/ha
  Pre-emerge Herbicidal Activity SETVI (phytotoxicity rating, scale 0-100): 100
[5]; 63 g ai/ha
  Pre-emerge Herbicidal Activity IPOHE (phytotoxicity rating, scale 0-100): 100
[5]; 250 g ai/ha
  Pre-emerge Herbicidal Activity IPOHE (phytotoxicity rating, scale 0-100): 100
[6]; 63 g ai/ha
  Pre-emerge Herbicidal Activity SORHA (phytotoxicity rating, scale 0-100): 60
[6]; 250 g ai/ha
  Pre-emerge Herbicidal Activity SORHA (phytotoxicity rating, scale 0-100): 90
[7]; 63 g ai/ha
  Pre-emerge Herbicidal Activity CHEAL (phytotoxicity rating, scale 0-100): 100
[7]; 250 g ai/ha
  Pre-emerge Herbicidal Activity CHEAL (phytotoxicity rating, scale 0-100): 100
[8]; 63 g ai/ha
  Pre-emerge Herbicidal Activity DIGSA (phytotoxicity rating, scale 0-100): 70
[8]; 250 g ai/ha
  Pre-emerge Herbicidal Activity DIGSA (phytotoxicity rating, scale 0-100): 100
[9]; 63 g ai/ha
  Pre-emerge Herbicidal Activity CASOB (phytotoxicity rating, scale 0-100): 70
[9]; 250 g ai/ha
  Pre-emerge Herbicidal Activity CASOB (phytotoxicity rating, scale 0-100): 100
[10]; 63 g ai/ha
  Pre-emerge Herbicidal Activity ABUTH (phytotoxicity rating, scale 0-100): 100
[10]; 250 g ai/ha
  Pre-emerge Herbicidal Activity ABUTH (phytotoxicity rating, scale 0-100): 100
[11]; 63 g ai/ha
  Pre-emerge crop damage CORN (phytotoxicity rating, scale 0-100): 60
[11]; 250 g ai/ha
  Pre-emerge crop damage CORN (phytotoxicity rating, scale 0-100): 100
[12]; 63 g ai/ha
  Pre-emerge crop damage RICE (phytotoxicity rating, scale 0-100): 80
[12]; 250 g ai/ha
  Pre-emerge crop damage RICE (phytotoxicity rating, scale 0-100): 95
[13]; 63 g ai/ha
  Post-emerge Herbicidal Activity ECHCG: 0
[13]; 250 g ai/ha
  Post-emerge Herbicidal Activity ECHCG: 30
[14]; 63 g ai/ha
  Post-emerge Herbicidal Activity AMBEL: 90
[14]; 250 g ai/ha
  Post-emerge Herbicidal Activity AMBEL: 100
[15]; 63 g ai/ha
  Post-emerge Herbicidal Activity IPOHE: 100
[15]; 250 g ai/ha
  Post-emerge Herbicidal Activity IPOHE: 100
[16]; 63 g ai/ha
  Post-emerge Herbicidal Activity SORHA: 50
[16]; 250 g ai/ha
  Post-emerge Herbicidal Activity SORHA: 90
[17]; 63 g ai/ha
  Post-emerge Herbicidal Activity CHEAL: 70
[17]; 250 g ai/ha
  Post-emerge Herbicidal Activity CHEAL: 90
[18]; 63 g ai/ha
  Post-emerge Herbicidal Activity DIGSA: 0
[18]; 250 g ai/ha
  Post-emerge Herbicidal Activity DIGSA: 70
[19]; 63 g ai/ha
  Post-emerge Herbicidal Activity AMARE: 70
[19]; 250 g ai/ha
  Post-emerge Herbicidal Activity AMARE: 100
[20]; 63 g ai/ha
  Post-emerge Herbicidal Activity CASOB: 95
[20]; 250 g ai/ha
  Post-emerge Herbicidal Activity CASOB: 100
[21]; 63 g ai/ha
  Post-emerge Herbicidal Activity ABUTH: 100
[21]; 250 g ai/ha
  Post-emerge Herbicidal Activity ABUTH: 100
[22]; 63 g ai/ha
  Post-emerge Herbicidal Activity CORN (crop damage): 40
[22]; 250 g ai/ha
  Post-emerge Herbicidal Activity CORN (crop damage): 90
[23]; 63 g ai/ha
  Post-emerge Herbicidal Activity RICE (crop damage): 50
[23]; 250 g ai/ha
  Post-emerge Herbicidal Activity RICE (crop damage): 95
